From ChEMBL document CHEMBL1201862, “PubChem BioAssay data set” (2004)
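Following 48 hours of exposure in 96-well plates, responses at five concentrations were used to interpolate endpoints linearly. GI50 is the concentration that inhibits growth by half.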 Active and inactive are the calls of the source. Rule as the data show it: active = GI50 up to about 1.1 µM and inactive = higher.

Assays:
Assay in all cases: NCI-60 cell line screen, 48 h
KM12 = test system: KM12
SK-MEL-28 = test system: SK-MEL-28
UO-31 = test system: UO-31
UACC-62 = test system: UACC-62
SK-MEL-5 = test system: SK-MEL-5
NCI-H522 = test system: NCI-H522
SF-268 = test system: SF-268
SR = test system: SR
OVCAR-4 = test system: OVCAR-4
SK-MEL-2 = test system: SK-MEL-2
786-0 = test system: 786-0
SF-295 = test system: SF-295
HCT-15 = test system: HCT-15
HL-60 = test system: HL-60
HCT-116 = test system: HCT-116
SN12C = test system: SN12C
SF-539 = test system: SF-539
HT-29 = test system: HT-29

Row | Compound | GI50 (KM12) | GI50 (SK-MEL-28) | GI50 (UO-31) | GI50 (UACC-62) | GI50 (SK-MEL-5) | GI50 (NCI-H522) | GI50 (SF-268) | GI50 (SR) | GI50 (OVCAR-4) | GI50 (SK-MEL-2) | GI50 (786-0) | GI50 (SF-295) | GI50 (HCT-15) | GI50 (HL-60) | GI50 (HCT-116) | GI50 (SN12C) | GI50 (SF-539) | GI50 (HT-29)
1 | CN(C(=O)C12C3C4C5C3C1(C(=O)O)C5C42)C(C)(C)C (stereo unspecified) | > 100 µM (inactive) | > 100 µM (inactive) | > 100 µM (inactive) | > 100 µM (inactive) | > 100 µM (inactive) | > 100 µM (inactive) | > 100 µM (inactive) | > 100 µM (inactive) | > 100 µM (inactive) | > 100 µM (inactive) | > 100 µM (inactive) | > 100 µM (inactive) | 33.2 µM | 17.1 µM (inactive) | 34.2 µM (inactive) | > 100 µM (inactive) | > 100 µM (inactive) | 78.5 µM (inactive)
2 | O=c1c(-c2ccccc2)c2oc(c1-c1ccccc1)CSCc1cccc(c1)CSC2 | 60.3 µM (inactive) | 24 µM (inactive) | 32.1 µM (inactive) | 44.1 µM (inactive) | 54.2 µM (inactive) | 39.6 µM (inactive) | 30.5 µM (inactive) | – | 51.9 µM (inactive) | > 100 µM (inactive) | 27.5 µM (inactive) | 51.2 µM (inactive) | > 100 µM | 67.9 µM (inactive) | 41.2 µM (inactive) | 49.1 µM (inactive) | 22.7 µM (inactive) | 51.9 µM (inactive)
3 | C[n+]1c2ccccc2c(CNCC(=O)O)c2ccccc21 | 0.452 µM (active) | – | 10.9 µM (inactive) | 1.21 µM (inactive) | 3.98 µM (inactive) | 0.137 µM (active) | 0.459 µM (active) | 0.238 µM (active) | 12.6 µM (inactive) | 2.43 µM (inactive) | 1.17 µM (inactive) | 5.07 µM (inactive) | 0.805 µM | 0.187 µM (active) | 0.39 µM (active) | 0.562 µM (active) | 2.12 µM (inactive) | 0.711 µM (active)
4 | CCOc1ccc(NC(=O)CC2C(=O)Nc3ccccc3[S+]2[O-])cc1 (stereo unspecified) | > 100 µM (inactive) | > 100 µM (inactive) | > 52 µM (inactive) | > 46.5 µM (inactive) | > 100 µM (inactive) | > 100 µM (inactive) | 49.7 µM (inactive) | 29.5 µM (inactive) | > 57.1 µM (inactive) | > 100 µM (inactive) | 49.1 µM (inactive) | > 100 µM (inactive) | > 100 µM | > 100 µM (inactive) | > 85.3 µM (inactive) | > 71 µM (inactive) | > 67.8 µM (inactive) | > 100 µM (inactive)
5 | Cc1ccc(S(=O)(=O)NC2(C=O)CCC(C(C)(C)C)CC2)cc1 (stereo unspecified) | 27 µM (inactive) | – | 38.1 µM (inactive) | 39 µM (inactive) | 21.9 µM (inactive) | 24.3 µM (inactive) | 38.9 µM (inactive) | 15.2 µM (inactive) | 27.7 µM (inactive) | 44.6 µM (inactive) | 37.9 µM (inactive) | 31.3 µM (inactive) | 32.6 µM | 20.1 µM (inactive) | 23.8 µM (inactive) | 26.1 µM (inactive) | 44.6 µM (inactive) | 32.1 µM (inactive)
6 | N#CC1=C(c2ccccc2)OC2(N)OC(c3ccccc3)=C(C#N)C12C#N (stereo unspecified) | > 100 µM (inactive) | > 100 µM (inactive) | 31.5 µM (inactive) | > 100 µM (inactive) | > 100 µM (inactive) | – | > 100 µM (inactive) | – | 60.3 µM (inactive) | > 100 µM (inactive) | > 100 µM (inactive) | > 100 µM (inactive) | > 100 µM | – | – | > 100 µM (inactive) | > 100 µM (inactive) | > 100 µM (inactive)
7 | C[Si](C)(c1ccccc1)C1CC(=O)CC(=O)C1 | > 100 µM (inactive) | > 100 µM (inactive) | 19.9 µM (inactive) | > 100 µM (inactive) | > 100 µM (inactive) | 26.1 µM (inactive) | > 100 µM (inactive) | > 100 µM (inactive) | > 100 µM (inactive) | > 100 µM (inactive) | 21.4 µM (inactive) | > 100 µM (inactive) | > 100 µM | 21.3 µM (inactive) | > 100 µM (inactive) | > 100 µM (inactive) | 19.3 µM (inactive) | > 100 µM (inactive)
8 | COc1nc2c(c(O)c(C)c(=O)n2OC2OCC(OC(C)=O)C(OC(C)=O)C2OC(C)=O)c(=O)n1C (stereo unspecified) | > 100 µM (inactive) | > 100 µM (inactive) | > 100 µM (inactive) | > 100 µM (inactive) | > 100 µM (inactive) | 91.8 µM (inactive) | > 100 µM (inactive) | > 100 µM (inactive) | > 100 µM (inactive) | > 100 µM (inactive) | > 100 µM (inactive) | > 100 µM (inactive) | > 100 µM | – | > 100 µM (inactive) | > 100 µM (inactive) | 60.4 µM (inactive) | > 100 µM (inactive)
9 | C[N+](C)(C)CC(=O)N/N=C(/C=C/c1ccccc1)CC1OC(=O)c2ccccc21 (stereo unspecified) | > 100 µM (inactive) | > 100 µM (inactive) | > 100 µM (inactive) | > 100 µM (inactive) | > 100 µM (inactive) | > 100 µM (inactive) | > 100 µM (inactive) | – | > 100 µM (inactive) | > 100 µM (inactive) | > 100 µM (inactive) | > 10 µM (inactive) | > 100 µM | > 100 µM (inactive) | > 100 µM (inactive) | > 100 µM (inactive) | > 100 µM (inactive) | > 10 µM (inactive)
10 | O=C(O)/C(Cl)=C(\Cl)Nc1cccc(C(F)(F)F)c1 | – | > 100 µM (inactive) | > 100 µM (inactive) | > 100 µM (inactive) | – | – | > 100 µM (inactive) | – | > 100 µM (inactive) | – | > 100 µM (inactive) | > 100 µM (inactive) | > 100 µM | 39.5 µM (inactive) | – | > 100 µM (inactive) | – | > 100 µM (inactive)
11 | COC(=O)C(C(=O)C(=O)Nc1ccc(C(F)(F)F)cc1[N+](=O)[O-])c1csc(-n2nc(-c3ccccc3)cc2-c2ccccc2)n1 (stereo unspecified) | > 100 µM (inactive) | – | > 100 µM (inactive) | > 100 µM (inactive) | – | > 100 µM (inactive) | – | > 100 µM (inactive) | > 100 µM (inactive) | > 100 µM (inactive) | > 100 µM (inactive) | > 100 µM (inactive) | > 100 µM | > 100 µM (inactive) | > 100 µM (inactive) | > 100 µM (inactive) | > 100 µM (inactive) | > 100 µM (inactive)
12 | Cc1cc2c(C(C)C)c(O)c(O)c(/C=N\CCO)c2c(O)c1-c1c(C)cc2c(C(C)C)c(O)c(O)c(/C=N/CCO)c2c1O | 0.74 µM (active) | 1.67 µM (inactive) | 3.44 µM (inactive) | 2.74 µM (inactive) | 1.73 µM (inactive) | 2.04 µM (inactive) | 1.39 µM (inactive) | 1.1 µM (active) | 3.6 µM (inactive) | 3.15 µM (inactive) | 2.1 µM (inactive) | 2.15 µM (inactive) | 1.51 µM | 2.43 µM (inactive) | 1.67 µM (inactive) | 2.84 µM (inactive) | 2.54 µM (inactive) | 2.28 µM (inactive)
13 | C[C@@H]1OC(=O)N2CCCC(=C3SCCCS3)C12 (stereo partly specified) | 60.3 µM (inactive) | > 100 µM (inactive) | 19.4 µM (inactive) | 56.1 µM (inactive) | – | 59.2 µM (inactive) | 61.9 µM (inactive) | – | > 100 µM (inactive) | > 100 µM (inactive) | > 100 µM (inactive) | 90.2 µM (inactive) | > 100 µM | – | 44.4 µM (inactive) | > 100 µM (inactive) | > 100 µM (inactive) | 70.1 µM (inactive)
14 | Nc1nc2c(ncn2CCCC(c2ccccc2)P(=O)(O)O)c(=O)[nH]1 (stereo unspecified) | > 100 µM (inactive) | > 100 µM (inactive) | > 100 µM (inactive) | > 100 µM (inactive) | > 100 µM (inactive) | > 100 µM (inactive) | > 100 µM (inactive) | – | – | > 100 µM (inactive) | > 100 µM (inactive) | > 100 µM (inactive) | > 100 µM | > 100 µM (inactive) | > 100 µM (inactive) | > 100 µM (inactive) | > 100 µM (inactive) | > 100 µM (inactive)
15 | O=C1C(N2C(=O)c3ccccc3C2=O)CN1C(COCc1ccccc1)c1ccc(OCc2ccccc2)cc1 (stereo unspecified) | > 100 µM (inactive) | > 100 µM (inactive) | > 100 µM (inactive) | > 100 µM (inactive) | > 100 µM (inactive) | > 100 µM (inactive) | > 100 µM (inactive) | > 100 µM (inactive) | > 100 µM (inactive) | – | > 100 µM (inactive) | > 100 µM (inactive) | > 100 µM | > 100 µM (inactive) | > 100 µM (inactive) | > 100 µM (inactive) | > 100 µM (inactive) | > 100 µM (inactive)
16 | COc1ccc(-c2nc3c(nc2-c2ccc(OC)cc2)N(C)S(=O)(=O)N=C3N)cc1 | 22.8 µM (inactive) | 32.1 µM (inactive) | 13.6 µM (inactive) | 22.8 µM (inactive) | 11.6 µM (inactive) | 9.59 µM (inactive) | 24.3 µM (inactive) | 9.89 µM (inactive) | 14.1 µM (inactive) | 20.5 µM (inactive) | 16.9 µM (inactive) | 22.3 µM (inactive) | 32.4 µM | 15.9 µM (inactive) | 15 µM (inactive) | 41 µM (inactive) | 18.3 µM (inactive) | 25.4 µM (inactive)
17 | COc1c(OC2OC(CO)C(O)C(O)C2O)cc2c(c1OC)-c1ccc(OC)c(=O)cc1[C@@H](NC(C)=O)CC2 (stereo partly specified) | 92.7 µM (inactive) | 59.4 µM (inactive) | > 100 µM (inactive) | 51.5 µM (inactive) | 35.2 µM (inactive) | 43.8 µM (inactive) | > 56.2 µM (inactive) | > 100 µM (inactive) | > 100 µM (inactive) | 35.1 µM (inactive) | > 100 µM (inactive) | > 89.7 µM (inactive) | > 100 µM | > 70.8 µM (inactive) | > 100 µM (inactive) | > 91 µM (inactive) | 64.9 µM (inactive) | > 100 µM (inactive)
